Literature values as cited in patent US11337932B2, “Transdermal therapeutic system containing asenapine and polysiloxane or polyisobutylene” (LTS LOHMANN Therapie-Systeme AG, priority 2016, dated 2022).

What was measured:
[1] = if ingested
[2] = biological target: serotonin 5-HT2A receptors (Homo sapiens, UniProt P28223); details: background statement; antagonist at dopamine D2 and serotonin 5-HT2A receptors
serotonin 5-HT2A receptors, sequence (P28223 whole entry): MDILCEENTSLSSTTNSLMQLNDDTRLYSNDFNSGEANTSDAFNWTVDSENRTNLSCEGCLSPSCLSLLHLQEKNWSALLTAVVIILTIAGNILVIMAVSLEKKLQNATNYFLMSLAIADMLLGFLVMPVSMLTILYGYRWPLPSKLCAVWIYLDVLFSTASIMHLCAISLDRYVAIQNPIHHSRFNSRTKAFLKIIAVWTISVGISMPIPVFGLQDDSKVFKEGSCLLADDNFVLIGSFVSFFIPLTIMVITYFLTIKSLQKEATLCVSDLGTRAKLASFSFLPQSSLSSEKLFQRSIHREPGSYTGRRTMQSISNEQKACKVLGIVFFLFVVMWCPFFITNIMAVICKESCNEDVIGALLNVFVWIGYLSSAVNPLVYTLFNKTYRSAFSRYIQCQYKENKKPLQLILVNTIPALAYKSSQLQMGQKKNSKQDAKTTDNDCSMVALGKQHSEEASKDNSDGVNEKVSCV

bioavailability [1]: < 2%
affinity [2]: high affinity
Structure (SMILES): CN1C[C@H]2c3ccccc3Oc3ccc(Cl)cc3[C@@H]2C1 (relative stereo) [asenapine, (3aRS,12bRS)-rel-5-chloro-2,3,3a,12b-tetrahydro-2-methyl-1H-dibenz[2,3:6,7]oxepino[4,5-c]pyrrole]
